Assay results taken from patent US8344010B2, “Fused imidazole derivatives as TRPV3 antagonist” (Glenmark Pharmaceuticals S.A., priority 2008, dated 2013).

Target: T1, Human TRPV3 (Homo sapiens, UniProt Q8NET8)
T1 construct: expressed in transfected cells; host or cells: CHO cells (selected with G-418)
T1 sequence (Q8NET8 1-790): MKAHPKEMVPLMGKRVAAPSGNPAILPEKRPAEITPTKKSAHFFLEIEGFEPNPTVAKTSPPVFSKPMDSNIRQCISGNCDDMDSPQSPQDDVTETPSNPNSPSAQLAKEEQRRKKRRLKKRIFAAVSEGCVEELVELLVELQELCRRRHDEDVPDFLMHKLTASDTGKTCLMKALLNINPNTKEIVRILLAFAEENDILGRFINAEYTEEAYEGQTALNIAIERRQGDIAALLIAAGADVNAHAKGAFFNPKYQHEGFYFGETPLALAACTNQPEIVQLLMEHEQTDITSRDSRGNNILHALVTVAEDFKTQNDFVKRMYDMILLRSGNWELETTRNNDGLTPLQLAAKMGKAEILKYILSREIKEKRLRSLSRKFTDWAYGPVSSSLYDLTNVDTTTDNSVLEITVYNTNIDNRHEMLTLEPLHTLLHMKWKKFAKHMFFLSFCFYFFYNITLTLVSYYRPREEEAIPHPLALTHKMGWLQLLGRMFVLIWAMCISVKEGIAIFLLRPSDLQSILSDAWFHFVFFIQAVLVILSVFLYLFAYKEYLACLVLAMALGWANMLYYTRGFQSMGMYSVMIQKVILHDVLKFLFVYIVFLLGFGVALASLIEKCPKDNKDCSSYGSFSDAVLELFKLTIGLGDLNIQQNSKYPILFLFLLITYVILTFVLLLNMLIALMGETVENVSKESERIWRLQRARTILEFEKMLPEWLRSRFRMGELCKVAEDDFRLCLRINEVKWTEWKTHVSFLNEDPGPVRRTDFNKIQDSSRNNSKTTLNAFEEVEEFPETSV
Assay: 45Calcium uptake assay: inhibition of 2-APB induced cellular uptake of radioactive calcium
Assay type: cell-based
Conditions: human TRPV3 expressing CHO cells, 2-APB 500 μM; for inhibition at 1 µM: 1 μM test compound, read-out: Percentage Inhibition (1 μM); for inhibition at 10 µM: 10 μM test compound, read-out: Percentage Inhibition (10 μM); for IC50: class symbol
From the text: The illustrative examples of the present invention are screened for TRPV3 activity according to a modified procedure described in Tóth, A., Kedei, N., Wang, Y. and Blumberg, P. M. Life Sciences (2003), 73, 487-498. The screening of the compounds can be carried out by other methods and procedures known to a person skilled in the art. Such screening methods may be found in (a) Hu, H.-Z. et al. J. Biol. Chem. (2004), 279, 35741-35747; (b) Smith, G. D. et al. Nature (2002), 418, 186-190; (c) Peier, A. M. et al. Science (2002), 296, 2046-2049.
Screening for TRPV3 antagonist using the ^45Calcium uptake assay The inhibition of TRPV3 receptor activation was followed as inhibition of 2-aminoethoxydiphenylborate (2-APB) induced cellular uptake of radioactive calcium. Test compounds were dissolved in dimethyl sulfoxide (DMSO) to prepare 20 mM stock solution and then diluted using plain medium with DMEM/F-12 containing 1.8 mM CaCl2 to get desired concentration. Final concentration of DMSO in the reaction was 0.5% (v/v). Human TRPV3 expressing CHO cells were grown in DMEM/F-12 medium with 10% FBS, 1% penicillin-streptomycin solution, 400 μg/ml of G-418. Cells were seeded 24 h prior to the assay in 96 well plates so as to get ˜50,000 cells per well on the day of experiment. Cells were treated with test compounds for 10 minutes followed by addition of 2-APB at a final concentration of 500 μM and 5 μCi/ml^45Ca^+2 for 4 minutes. Cells were washed and lysed using buffer containing 1% Triton X-100, 0.1% deoxycholate and 0.1% SDS. Radioactivity in the lysate was measured in Packardt Top count after addition of liquid scintillant. Concentration response curves were plotted as a % of maximal response obtained in the absence of test antagonist. IC50 value was calculated from concentration response curve by nonlinear regression analysis using GraphPad PRISM software.
Percentage inhibition at concentrations of 1.0 μM and 10.0 μM are given in the table along with IC50 details for selected examples.

Structure (SMILES) | inhibition at 1 µM | inhibition at 10 µM | IC50
COc1cccc(/C=C/c2nc3ccccc3n2Cc2ccc(F)cc2F)c1OCC1CC1 [Example 41, 1-(2,4-Difluorobenzyl)-2-[(E)-2-(2-cyclopropylmethoxy-3-methoxyphenyl)vinyl]-1H-benzimidazole] | 57.7% | 86.5% | –
COc1cccc(/C=C/c2nc3ccccc3n2-c2ccc(C#N)cc2)c1OCC1CC1 [Example 33, 4-{2-[(E)-2-(2-Cyclopropylmethoxy-3-methoxyphenyl)vinyl]-1H-benzimidazol-1-yl}benzonitrile] | 78.2% | 95.3% | 100 to 500 nM
COc1cccc(/C=C/c2nc3ccccc3n2-c2ccc(C#N)cc2)c1OCc1ccccc1 [Example 34, 4-{2-[(E)-2-(2-Benzyloxy-3-methoxyphenyl)vinyl]-1H-benzimidazol-1-yl}benzonitrile] | 69.9% | 86.8% | > 500 nM
COc1cccc(/C=C/c2nc3ccccc3n2-c2ccc(C#N)cn2)c1OCc1ccccc1C#N [Example 15] | 90.3% | 95.1% | > 500 nM
COc1cccc(/C=C/c2nc3ccccc3n2-c2ccc(C#N)cc2F)c1OCC1CC1 [Example 39, 4-{2-[(E)-2-(2-Cyclopropylmethoxy-3-methoxyphenyl)vinyl]-1H-benzimidazol-1-yl}-3-fluorobenzonitrile] | 76.8% | 94.2% | 100 to 500 nM
COc1cccc(/C=C/c2nc3ccccc3n2-c2ccc(C(F)(F)F)cn2)c1OCC1CC1 [Example 26] | 70.6% | 91.6% | > 500 nM
COc1cccc(/C=C/c2nc3ccccc3n2Cc2ccc(C(C)(C)C)cc2)c1OC1CCCC1 [Example 40, 2-[(E)-2-(2-Cyclopentyloxy-3-methoxyphenyl)vinyl]-1-(4-tert-butylbenzyl)-1H-benzimidazole] | 11.7% | 12.3% | –
CCCCCOc1c(/C=C/c2nc3cccnc3n2-c2ccc(C#N)cn2)cccc1OC [Example 87, 6-{2-[(E)-2-(2-Pentyloxy-3-methoxyphenyl)vinyl]-3H-imidazo[4,5-b]pyridin-3-yl}nicotinonitrile] | 95.7% | 99.1% | 100 to 500 nM
COc1cccc(/C=C/c2nc3ccccc3n2-c2ccc(C#N)cn2)c1OCc1c(F)cccc1F [Example 17, 6-(2-{(E)-2-[2-(2,6-Difluorobenzyloxy)-3-methoxyphenyl]vinyl}-1H-benzimidazol-1-yl)nicotinonitrile] | 84.3% | 95.8% | 100 to 500 nM
CCC(CC)Oc1c(/C=C/c2nc3cc(F)c(F)cc3n2-c2ccc(C#N)cn2)cccc1OC [Example 77, 6-{2-[(E)-2-(2-(1-ethylpropoxy)-3-methoxyphenyl)vinyl]-5,6-difluoro-1H-benzimidazol-1-yl}nicotinonitrile] | 93.2% | 98.7% | 50 to 100 nM

The remaining lines, values ahead:

inhibition at 1 µM | inhibition at 10 µM | IC50 | Structure (SMILES)
32.1% | 30.2% | – | COC(=O)c1ccc(-n2c(/C=C/c3cccc(OC)c3OC3CCCC3)nc3ccc(F)cc32)nc1 [Example 60, Methyl 6-{2-[(E)-2-(2-Cyclopentyloxy-3-methoxyphenyl)vinyl]-6-fluoro-1H-benzimidazol-1-yl}nicotinate]
88.8% | 97.5% | 100 to 500 nM | COc1cccc(/C=C/c2nc3ccccc3n2Cc2ccc(C#N)cc2)c1OC1CCCC1 [Example 43, 4-({2-[(E)-2-(2-Cyclopentyloxy-3-methoxyphenyl)vinyl]-1H-benzimidazol-1-yl}methyl)benzonitrile]
93.3% | 98.2% | 50 to 100 nM | COc1cccc(/C=C/c2nc3cccnc3n2-c2ccc(C#N)cn2)c1OCC1CCC1 [Example 90, 6-[2-{(E)-2-[2-(Cyclobutylmethoxy)-3-methoxyphenyl]vinyl}-3H-imidazo[4,5-b]pyridine-3-yl]nicotinonitrile]
79.7% | 97.9% | > 500 nM | COc1cccc(/C=C/c2nc3ccccc3n2-c2ccc(C#N)cn2)c1OC(C)C [Example 9, 6-{2-[(E)-2-(2-Isopropoxy-3-methoxyphenyl)vinyl]-1H-benzimidazol-1-yl}nicotinonitrile]
6.4% | 92.8% | – | COc1cccc(/C=C/c2nc3ccccc3n2-c2ncccc2C#N)c1OC1CCCC1 [Example 7, 2-{2-[(E)-2-(2-Cyclopentyloxy-3-methoxyphenyl)vinyl]-1H-benzimidazol-1-yl}nicotinonitrile]
95.2% | 97.6% | 50 to 100 nM | CCCCCOc1c(/C=C/c2nc3cc(Cl)cnc3n2-c2ccc(C#N)cn2)cccc1OC [Example 93, 6-{6-Chloro-2-[(E)-2-(2-pentyloxy-3-methoxyphenyl)vinyl]-3H-imidazo[4,5-b]pyridin-3-yl}nicotinonitrile]
3.02% | 24.5% | – | COc1cccc(/C=C/c2nc3ccc[n+]([O-])c3n2-c2ccc(C#N)cn2)c1OC1CCCC1 [Example 92, 6 (2-{(E)-2-[2-(cyclopentyloxy)-3-methoxyphenyl]ethenyl}-4-oxido-3H-imidazo[4,5-b]pyridin-3-yl)pyridine-3-carbonitrile]
95.9% | 97.6% | 100 to 500 nM | COc1cccc(/C=C/c2nc3cc(Cl)ccc3n2-c2ccc(C#N)cn2)c1OC1CCCC1 [Example 55, 6-{5-chloro-2-[(E)-2-(2-cyclopentyloxy-3-methoxyphenyl)vinyl]-1H-benzimidazol-1-yl}nicotinonitrile]
96.2% | 97.8% | 50 to 100 nM | COc1ccc2nc(/C=C/c3cccc(OC)c3OC3CCCC3)n(-c3ccc(C#N)cn3)c2c1 [Example 51, 6-{2-[(E)-2-(2-Cyclopentyloxy-3-methoxyphenyl)vinyl]-6-methoxy-1H-benzimidazol-1-yl}nicotinonitrile]
95.5% | 99% | < 50 nM | COc1cccc(/C=C/c2nc3cc(F)c(F)cc3n2-c2ccc(C#N)cn2)c1OCC1CCC1 [Example 67]
50.9% | 81.7% | – | COc1cccc(/C=C/c2nc3ccccc3n2-c2ccc([N+](=O)[O-])cn2)c1OC1CCCC1 [Example 4, 2-[(E)-2-(2-[Cyclopentyloxy]-3-methoxyphenyl)vinyl]-1-(5-nitropyridin-2-yl)-1H-benzimidazole]
96.7% | 97.7% | < 50 nM | N#Cc1ccc(-n2c(/C=C/c3cccc(OC(F)F)c3OCC3CCC3)nc3cc(F)c(F)cc32)nc1 [Example 83, 6-(2-{(E)-2-[2-(Cyclobutylmethoxy)-3-difluoromethoxyphenyl]vinyl}-5,6-difluoro-1H-benzimidazol-1-yl)nicotinonitrile]
94.5% | 98% | 50 to 100 nM | COc1cccc(/C=C/c2nc3cc(Cl)cnc3n2-c2ccc(C#N)cn2)c1OCC1CCC1 [Example 94, 6-(6-Chloro-2-{(E)-2-[2-(cyclobutylmethoxy)-3-methoxyphenyl]vinyl}-3H-imidazo[4,5-b]pyridin-3-yl)nicotinonitrile]
